For this experiment, the system named is Rab33b. Format: cell-based.

Molecules are shown by their SMILES. Residues, ends and D or L forms follow the SMILES beside them. *: point of attachment. Cbz = O=C(OCc1ccccc1)*

For the compound `CC(C)C[C@@H](C=O)NC(=O)[C@H](CC(C)C)NC(=O)[C@H](CC(C)C)NC(=O)OCc1ccccc1` [MG132] (Cbz-Leu-Leu-Leu-aldehyde), the “effect on level of modified Rab33b” value is “does not affect the level of modified Rab33b”.
